Assay: Henry solubility constant Hcp at 298.15 K (mol/(m3 Pa))
Details: reference: Albanese et al. (1987)

SMILES	Henry solubility constant Hcp
ClCCCCCl [1,4-dichlorobutane]	0.012
CC(Br)CBr (stereo not given) [1,2-dibromopropane]	0.0053
C=C(Cl)CCl [2,3-dichloropropene]	0.0035
Cl/C=C\CCl [cis-1,3-dichloropropene]	0.0042
ClC/C=C\CCl [(Z)-1,4-dichloro-2-butene]	0.01
Cl/C=C/CCl [trans-1,3-dichloropropene]	0.0056
CC(Cl)CCl (stereo not given) [1,2-dichloropropane]	0.0049
ClC/C=C/CCl [(E)-1,4-dichloro-2-butene]	0.017
ClCC(Cl)CCl [1,2,3-trichloropropane]	0.033
ClCCCCl [1,3-dichloropropane]	0.0085

— Sander's compilation of Henry's law constants (doi:10.1080/09593338709384529)
